In ChEMBL document CHEMBL1134625 (J Med Chem, 2001):

Assays:
[1] = target: T1, 5-hydroxytryptamine receptor 1A (Homo sapiens, UniProt P08908)
T1 sequence (P08908 whole entry): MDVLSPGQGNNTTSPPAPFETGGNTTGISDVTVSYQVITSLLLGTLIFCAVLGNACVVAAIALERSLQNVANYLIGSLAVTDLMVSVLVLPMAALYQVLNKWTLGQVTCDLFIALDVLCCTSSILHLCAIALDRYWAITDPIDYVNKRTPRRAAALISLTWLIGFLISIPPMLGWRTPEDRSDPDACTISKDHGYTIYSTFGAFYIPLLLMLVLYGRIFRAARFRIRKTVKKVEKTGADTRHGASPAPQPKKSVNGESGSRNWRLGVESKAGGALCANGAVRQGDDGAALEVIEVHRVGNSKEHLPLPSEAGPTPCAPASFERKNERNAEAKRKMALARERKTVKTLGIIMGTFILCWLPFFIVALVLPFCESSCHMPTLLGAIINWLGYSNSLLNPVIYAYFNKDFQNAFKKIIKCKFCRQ

Adenosine receptor A3 = target: T2, Adenosine receptor A3 (Homo sapiens, UniProt P0DMS8)
T2 sequence (P0DMS8 whole entry): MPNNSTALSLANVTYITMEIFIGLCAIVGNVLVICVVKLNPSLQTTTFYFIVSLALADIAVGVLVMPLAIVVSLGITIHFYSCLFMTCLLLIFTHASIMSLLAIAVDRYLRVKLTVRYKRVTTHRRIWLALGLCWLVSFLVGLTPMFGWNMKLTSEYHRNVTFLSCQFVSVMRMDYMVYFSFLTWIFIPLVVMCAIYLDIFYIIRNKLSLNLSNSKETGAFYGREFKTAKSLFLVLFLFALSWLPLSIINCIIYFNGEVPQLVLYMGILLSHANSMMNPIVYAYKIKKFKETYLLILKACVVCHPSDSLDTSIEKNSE

D(4) dopamine receptor = target: T3, D(4) dopamine receptor (Homo sapiens, UniProt P21917)
T3 sequence (P21917 whole entry): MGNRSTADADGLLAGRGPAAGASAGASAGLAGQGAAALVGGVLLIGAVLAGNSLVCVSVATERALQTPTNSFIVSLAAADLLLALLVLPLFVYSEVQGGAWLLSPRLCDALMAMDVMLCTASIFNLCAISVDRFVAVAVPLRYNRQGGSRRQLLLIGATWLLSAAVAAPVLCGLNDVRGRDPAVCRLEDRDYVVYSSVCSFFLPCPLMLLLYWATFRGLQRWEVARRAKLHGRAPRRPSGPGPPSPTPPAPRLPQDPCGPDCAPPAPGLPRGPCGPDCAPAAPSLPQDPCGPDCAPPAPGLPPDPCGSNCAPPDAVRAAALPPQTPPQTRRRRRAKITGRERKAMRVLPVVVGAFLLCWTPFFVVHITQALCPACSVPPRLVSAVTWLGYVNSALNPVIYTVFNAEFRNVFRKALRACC

D(2) dopamine receptor = D(2) dopamine receptor (Homo sapiens, UniProt P14416)
Sequence of D(2) dopamine receptor (P14416 whole entry): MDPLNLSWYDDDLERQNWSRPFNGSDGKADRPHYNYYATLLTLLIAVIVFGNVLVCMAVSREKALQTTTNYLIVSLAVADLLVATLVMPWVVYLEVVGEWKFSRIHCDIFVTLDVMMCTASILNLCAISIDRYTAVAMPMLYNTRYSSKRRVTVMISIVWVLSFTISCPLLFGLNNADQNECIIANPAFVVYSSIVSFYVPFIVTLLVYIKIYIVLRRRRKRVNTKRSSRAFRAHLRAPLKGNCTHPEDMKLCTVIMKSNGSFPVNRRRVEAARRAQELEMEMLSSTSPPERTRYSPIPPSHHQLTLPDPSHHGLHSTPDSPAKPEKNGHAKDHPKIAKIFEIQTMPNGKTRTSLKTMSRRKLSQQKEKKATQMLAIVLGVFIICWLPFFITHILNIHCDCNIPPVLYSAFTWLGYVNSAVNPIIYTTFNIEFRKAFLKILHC

N#Cc1ccc(CCOC(=O)NC2CCN(CCCC(c3ccc(F)cc3)c3ccc(F)cc3)CC2)cc1
IC50 [1]: 0.985 µM | IC50 (Adenosine receptor A3): 5.98 µM | IC50 (D(4) dopamine receptor): 0.543 µM | IC50 (D(2) dopamine receptor): 0.551 µM
